Measured values reported in patent publication US20230123334A1, “AMINO LIPID COMPOUND, PREPARATION METHOD THEREFOR, AND APPLICATION THEREOF” (SHENZHEN SHENXIN BIOTECHNOLOGY CO., LTD., priority 2020, published 2023).

Tested on: HEK293 cells
Assay: Preliminary screening as DNA vectors, GFP transfection of HEK293 cells
Type: cell-based
Conditions: amino lipid/DOPE liposome with 75 ng plasmid DNA (psin-EGFP-IRES-Puro); number of GFP-expressing cells divided by total nuclei (Hoechst)
Procedure, shortened: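 First, amino lipid and DOPE were vortexed in sodium acetate buffer (pH 5.6) to form liposomes. Next, these were held with 75 ng EGFP plasmid at room temperature for 30 min. Finally, HEK293 cells were added, cultured at 37° C., Hoechst-stained, and GFP+/total nuclei scored by imaging.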

Structure (SMILES)	Absolute DNA transfection efficiency in HEK293 cells
CCCCCCCCCCCCCNc1nc(NCCN2CCCC2)nc(SCCCCCCCCCC)n1 [S10N13 D3]	7.7%
CCCCCCCCCCCCCNc1nc(NCCN2CCCCC2)nc(SCCCCCCCCCC)n1 [S10N13 D4]	4.2%
CCCCCCCCCCCCCNc1nc(NCCN2CCN(C)CC2)nc(SCCCCCCCCCC)n1 [S10N13 D5]	2.1%
CCCCCCCCCCCCCNc1nc(NCCCN(C)C)nc(SCCCCCCCCCC)n1 [S10N13 D6]	7.9%
CCCCCCCCCCCCCNc1nc(NCCN(CC)CC)nc(SCCCCCCCCCC)n1 [S10N13 D7]	4.4%
CCCCCCCCCCCCCNc1nc(NCCCN2CCOCC2)nc(SCCCCCCCCCC)n1 [S10N13 D8]	5.7%
CCCCCCCCCCCCCNc1nc(NCCCN2CCN(C)CC2)nc(SCCCCCCCCCC)n1 [S10N13 D9]	0.4%
CCCCCCCCCCCCCNc1nc(NCC2CCN(C)CC2)nc(SCCCCCCCCCC)n1 [S10N13 D10]	3.2%
CCCCCCCCCCCCCCCNc1nc(NCCN(C)C)nc(SCCCCCCCCCC)n1 [S10N15 D1]	4.8%
CCCCCCCCCCCCCCCNc1nc(NCCN2CCOCC2)nc(SCCCCCCCCCC)n1 [S10N15 D2]	1.4%
CCCCCCCCCCCCCCCNc1nc(NCCN2CCCC2)nc(SCCCCCCCCCC)n1 [S10N15 D3]	11.5%
CCCCCCCCCCCCCCCNc1nc(NCCN2CCCCC2)nc(SCCCCCCCCCC)n1 [S10N15 D4]	4.1%
CCCCCCCCCCCCCCCNc1nc(NCCN2CCN(C)CC2)nc(SCCCCCCCCCC)n1 [S10N15 D5]	3.2%
CCCCCCCCCCCCCCCNc1nc(NCCCN(C)C)nc(SCCCCCCCCCC)n1 [S10N15 D6]	9.1%
CCCCCCCCCCCCCCCNc1nc(NCCN(CC)CC)nc(SCCCCCCCCCC)n1 [S10N15 D7]	1.7%
CCCCCCCCCCCCCCCNc1nc(NCCCN2CCOCC2)nc(SCCCCCCCCCC)n1 [S10N15 D8]	5.1%
CCCCCCCCCCCCCCCNc1nc(NCCCN2CCN(C)CC2)nc(SCCCCCCCCCC)n1 [S10N15 D9]	4.1%
CCCCCCCCCCCCCCCNc1nc(NCC2CCN(C)CC2)nc(SCCCCCCCCCC)n1 [S10N15 D10]	6.9%
CCCCCCCCCCCCCCCCNc1nc(NCCN(C)C)nc(SCCCCCCCCCC)n1 [S10N16 D1]	7.8%
CCCCCCCCCCCCCCCCNc1nc(NCCN2CCOCC2)nc(SCCCCCCCCCC)n1 [S10N16 D2]	1.2%
CCCCCCCCCCCCCCCCNc1nc(NCCN2CCCC2)nc(SCCCCCCCCCC)n1 [S10N16 D3]	8.8%
CCCCCCCCCCCCCCCCNc1nc(NCCN2CCCCC2)nc(SCCCCCCCCCC)n1 [S10N16 D4]	4.4%
CCCCCCCCCCCCCCCCNc1nc(NCCN2CCN(C)CC2)nc(SCCCCCCCCCC)n1 [S10N16 D5]	3.1%
CCCCCCCCCCCCCCCCNc1nc(NCCCN(C)C)nc(SCCCCCCCCCC)n1 [S10N16 D6]	13.6%
CCCCCCCCCCCCCCCCNc1nc(NCCN(CC)CC)nc(SCCCCCCCCCC)n1 [S10N16 D7]	4.8%
CCCCCCCCCCCCCCCCNc1nc(NCCCN2CCOCC2)nc(SCCCCCCCCCC)n1 [S10N16 D8]	3.0%
